In US8501734B2, “Medical intervention in haematological cancers” (Oncotyrol-Center for Personalized Cancer Medicine GmbH …, priority 2008, dated 2013):

Columns and labels:
[1] = tested on: multiple myeloma cell lines; test: Annexin V/PI apoptosis assay, multiple myeloma cell line panel; type: cell-based; details: 24 h
Experimental: (§1) After treatment adherent cells were trypsinized (as described before), and resuspended in corresponding full medium. Suspension cells or trypsinized adherent cells, supernatant and washing solution (1×PBS from washing before trypsinization) were pooled and then spun down (300 g for 3 min) washed in 2 ml and resuspended in 1000 of annexin V binding buffer and mixed with 2 μg/ml annexin V-Allophycocyanin (APC) (BD-Pharmingen, San Diego, Calif., USA) and 50 ng/ml of propidium iodide (PI; Sigma Aldrich). At least 10.000 cells were measured per sample using a Becton Dickinson FACSCalibur flow Cytometer (San Jose, Calif., USA). Percentage of Annexin V negative and PI negative cells were depicted in the figures. For the analysis of the pro-apoptotic activity of Imiquimod® in primary MM cells and non-malignant BMMCs, 5×10^5 cells BMMCs cells were treated with or without 40 μg/ml Imiquimod® for the indicated time periods. Cells were then harvested and washed twice with PBS. Detection of apoptotic cells was performed using the annexin V/PI assay according to manufacturers' instruction. Briefly, BMMCs were stained with a mixture of annexin V/FITC (Alexis Coorp., Laeufelfingen, Switzerland), propidium iodide (Sigma), anti-CD38-PE and anti-CD45-PC5 for 15 min at room temperature and immediately analyzed by flow cytometry. The percentages of viable cells (i.e. cells negative for annexin V/FITC and PI) within the MM (CD38^posCD45^low/absent) and non-MM fraction (CD38^neg/CD45^pos) were determined by flow cytometry.
(§2) Adherent cells were grown in 24-well plates to confluence and treated with 40 μg/ml Imiquimod® for 24 h. Cells were then trypsinized, suspended in full medium, stained for AnnexinV/PI and apoptosis was measured as described before. Suspension cells (250.000) were treated with 40 μg/ml Imiquimod® for 24 h, stained for Annexin/PI and apoptosis was measured as described above (Annexin V/Propidium Iodide apoptosis Assay).

TLR7 pathway = test: TLR pathway activation: IRAK1 and IκB degradation by Western blot in OPM2 cells; type: cell-based; details: OPM2 cells, 10, 20 or 40 μg/ml over night
Experimental: Cells were lysed in lysis-IP-Buffer supplemented with protease inhibitors and sodium orthovanadate. 10 μg of lysate were separated by SDS-PAGE (10% polyacrylamide) and transferred to methanol activated Hypond-P PVDF-membranes (Amersham, Freiburg, Germany) by semi-dry blotting. Membranes were blocked in a 3% bovine serum albumin solution or 5% non fat dry milk solution in phosphate buffered saline (PBS) with 0.1% Tween 20 (PBT). Primary antibodies were applied in blocking solution for 1 h at room temperature or over night at 4° C. Membranes were washed in PBT and incubated with corresponding secondary antibodies in 5% non fat dry milk in PBT for 1 h at room temperature. Cells were washed with PBT, incubated with ECL solution and exposed in a Fluorchem 5500 (Biozym, Oldendorf, Germany).
OPM2 cells were suspended in full medium and cultured in 24-well plates at a cell density of 500.000 cells/ml and well. Cells were left untreated (control) or treated over night with different concentrations of Imiquimod® (10, 20 or 40 μg/ml).
OPM2 cells were cultured in 24-well plates as described above. Imiquimod® (40 μg/ml) was added to cells (except controls) for different time periods (2, 4, 6 and 8 h) and the extent of PARP1 cleavage, IRAK1, IkB-α and IkB-β degradation were determined by Western blot. α-Tubulin was used as a loading control.

OPM-2 cells xenograft = type: in vivo, NIH III-nude mice
Experimental: Average tumor diameter and mouse body weight was measured every 3rd day.
Treatment was started when tumors reached an average diameter of 0.8 cm and mice were sacrificed when the tumor reached an average diameter of 1.5 cm. A maximum volume of 150 μl of Imiquimod®, in a concentration of 2.5 mg/ml in H2O, was injected subcutaneously into the left flank of the mice. The same amount of H2O was injected in the same way into control mice. Tumor volume was calculated with the formula 4π/3×(width/2)2×(length/2).

[2] = tested on: non-tumor cells (CD38negCD45high); test: Annexin V/PI apoptosis assay, non-tumor fraction of patient BMMCs; type: cell-based, human; details: CD45high non-tumor cells, 40 μg/ml, 8 h or 24 h
Experimental: For collection of primary multiple myeloma cells, bone marrow aspirates from iliac crests were collected during routine examinations after obtaining informed patient consent. Bone marrow mononuclear cells (BMMCs) were separated by density centrifugation. Fresh blood samples were diluted 1:1 with RPMI 1640 medium and layered over Biocoll separating solution (1.077 g/ml, Biochrom AG, Berlin; blood/RPMI1640/Biocoll; 1:1:1, v/v/v). Centrifugation was carried out for 20 min at 400 g. […] The percentage of multiple myeloma cells within the BMMCs was determined by flow cytometry. Briefly, 2×10^5 cells were stained for 15 min with fluorochrome-labelled antibodies to CD38 (phycoerythrin, PE) and CD45 (phycoerythrin-cyanin 5, PC5) (both from Beckman Coulter Inc., Fullerton, Calif., USA), washed with PBS and were immediately analyzed using the FC500 flow cytometer and the RXP1.0 software (Beckman Coulter). MM cells were detected by their high expression of CD38 and weak to absent expression of CD45.
After treatment adherent cells were trypsinized (as described before), and resuspended in corresponding full medium. […] At least 10.000 cells were measured per sample using a Becton Dickinson FACSCalibur flow Cytometer (San Jose, Calif., USA). […]

[3] = tested on: squamous cell carcinoma cells; details: 50 μg/ml, 24 h; cited from earlier work
[4] = tested on: Raji, Daudi, Ramos, Jurkat, C7H2 cell lines; test: Annexin V/PI apoptosis assay, non-multiple myeloma suspension cell lines; type: cell-based; details: 24 h
Experimental: as §1, §2

[5] = tested on: MDA468, CHO, ONK2, MCF7, HeLa, Raji, Daudi, Ramos, C7H2 and Jurkat; adherent cell lines; test: Annexin V/PI apoptosis assay, non-MM and adherent cell lines; type: cell-based
Experimental: as §1, with “For the analysis of the pro-apoptotic activity of Imiquimod® in primary MM cells and non-malignant BMMCs, 5×10^5 cells BMMCs cells were treated with or without 40 μg/ml Imiquimod® for the indicated time periods. Cells were then harvested and washed twice with PBS. Detection of apoptotic cells was performed using the annexin V/PI assay according to manufacturers' instruction.” left out
Adherent cells were grown in 24-well plates to confluence and treated with 40 μg/ml Imiquimod® for 24 h. Cells were then trypsinized, suspended in full medium, stained for AnnexinV/PI and apoptosis was measured as described before. […]

CC(C)Cn1cnc2c(N)nc3ccccc3c21 [Imiquimod, 1-(2-methylpropyl)-1H-imidazo[4,5-c]quinolin-4-amine]
apoptosis induction, single agent ([1]; OPM2, LP-1, RPMI, U266, Imiquimod 20 μg/ml or Akti1/2 5 or 10 μM alone): some apoptosis
sensitivity (apoptosis) ([1]; OPM2, U266, LP1, NCI, 40 μg/ml): sensitive
IRAK1 degradation (TLR7 pathway): degraded in a concentration-dependent manner
IκB-α degradation (TLR7 pathway): degraded in a concentration dependent manner
changes in tumor volume (OPM-2 cells xenograft; 10 mg/kg s.c. twice daily): ranging from tumor regression and stagnation, via slower growth to increase in tumor volume comparable to controls
histological analysis of tumors (haematoxylin and eosin) (OPM-2 cells xenograft; 10 mg/kg s.c. twice daily): regions of massive tissue destruction
tumor regression (OPM-2 cells xenograft; 10 mg/kg s.c. twice daily): 5 cases
weight development, treated versus control mice (OPM-2 cells xenograft; 10 mg/kg s.c. twice daily): no difference
survival of treated mice (OPM-2 cells xenograft; 10 mg/kg s.c. twice daily vs H2O, p=0.027, t-test): significantly increased
side effects (OPM-2 cells xenograft; 10 mg/kg s.c. twice daily, besides scars at the injection site): no obvious side effects could be observed
apoptosis induction [2]: induction of apoptosis
apoptotic cells [3]: 17.3%
sensitivity (apoptosis) ([4]; Raji and Jurkat, 40 μg/ml): if at all only low sensitivity
apoptosis induction ([4]; Raji, Daudi, Ramos, Jurkat, C7H2, 20 μg/ml): apoptosis to some minor degree
sensitivity to Imiquimod ([5]; MDA468, CHO, ONK2, MCF7, HeLa, Raji, Daudi, Ramos, C7H2 and Jurkat): no sensitivity
sensitivity (apoptosis) ([5]; set of adherent cell lines, 40 μg/ml, 24 h): no significant or only minimal sensitivity
